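Dose response: 5 concentrations. Exposure: 48 h. Format: 96-well plates. Endpoint: linear interpolation; highest concentration if not reached. TGI marks complete inhibition of growth.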
What was measured:
Experiment in all cases: NCI tumour cell line growth inhibition, 48 h
A498 renal = tested on: A498 renal
IGROV1 ovarian = tested on: IGROV1 ovarian
XF 498 CNS = tested on: XF 498 CNS
SF-539 CNS = tested on: SF-539 CNS
HL-60(TB) leukemia = tested on: HL-60(TB) leukemia
NCI-H226 lung = tested on: NCI-H226 lung
UACC-257 melanoma = tested on: UACC-257 melanoma
SW-620 colon = tested on: SW-620 colon
OVCAR-5 ovarian = tested on: OVCAR-5 ovarian
HCC-2998 colon = tested on: HCC-2998 colon
EKVX NSCLC = tested on: EKVX NSCLC
LOX IMVI melanoma = tested on: LOX IMVI melanoma
UO-31 renal = tested on: UO-31 renal
K-562 leukemia = tested on: K-562 leukemia
P388 leukemia = tested on: P388 leukemia
U251 CNS = tested on: U251 CNS
KM20L2 colon = tested on: KM20L2 colon
COLO 205 colon = tested on: COLO 205 colon
SNB-19 CNS = tested on: SNB-19 CNS
SF-268 CNS = tested on: SF-268 CNS
HOP-92 NSCLC = tested on: HOP-92 NSCLC
A549 NSCLC = tested on: A549 NSCLC
HT29 colon = tested on: HT29 colon
OVCAR-8 ovarian = tested on: OVCAR-8 ovarian
SN12C renal = tested on: SN12C renal
NCI-H460 lung = tested on: NCI-H460 lung
SNB-75 CNS = tested on: SNB-75 CNS
SK-MEL-28 melanoma = tested on: SK-MEL-28 melanoma
MALME-3M melanoma = tested on: MALME-3M melanoma
HOP-18 NSCLC = tested on: HOP-18 NSCLC
HCT-116 colon = tested on: HCT-116 colon
OVCAR-3 ovarian = tested on: OVCAR-3 ovarian
P388/ADR leukemia = tested on: P388/ADR leukemia
RPMI-8226 leukemia = tested on: RPMI-8226 leukemia
SK-MEL-2 melanoma = tested on: SK-MEL-2 melanoma
SK-OV-3 ovarian = tested on: SK-OV-3 ovarian
CAKI-1 renal = tested on: CAKI-1 renal
HCT-15 colon = tested on: HCT-15 colon
OVCAR-4 ovarian = tested on: OVCAR-4 ovarian
DLD-1 colon = tested on: DLD-1 colon
M19-MEL melanoma = tested on: M19-MEL melanoma
DMS 114 small cell lung = tested on: DMS 114 small cell lung
MOLT-4 leukemia = tested on: MOLT-4 leukemia
SK-MEL-5 melanoma = tested on: SK-MEL-5 melanoma
SNB-78 CNS = tested on: SNB-78 CNS
SN12K1 renal = tested on: SN12K1 renal
DMS 273 small cell lung = tested on: DMS 273 small cell lung
KM12 colon = tested on: KM12 colon
HOP-62 NSCLC = tested on: HOP-62 NSCLC
NCI-H522 lung = tested on: NCI-H522 lung
RXF 393 renal = tested on: RXF 393 renal
CCRF-CEM leukemia = tested on: CCRF-CEM leukemia
UACC-62 melanoma = tested on: UACC-62 melanoma
MCF7 breast = tested on: MCF7 breast
NCI-H23 lung = tested on: NCI-H23 lung
SF-295 CNS = tested on: SF-295 CNS
NCI/ADR-RES ovarian = tested on: NCI/ADR-RES ovarian

## O=Cc1c(Cn2ccnc2)c2cc([N+](=O)[O-])ccc2n1Cc1ccccc1
A498 renal
  TGI: > 100 µM
IGROV1 ovarian
  TGI: > 100 µM
XF 498 CNS
  TGI: > 100 µM
SF-539 CNS
  TGI: > 100 µM
HL-60(TB) leukemia
  TGI: > 41.9 µM
NCI-H226 lung
  TGI: > 100 µM
UACC-257 melanoma
  TGI: > 100 µM
SW-620 colon
  TGI: > 100 µM
OVCAR-5 ovarian
  TGI: > 100 µM
HCC-2998 colon
  TGI: > 100 µM
EKVX NSCLC
  TGI: > 100 µM
LOX IMVI melanoma
  TGI: > 100 µM
UO-31 renal
  TGI: > 100 µM
K-562 leukemia
  TGI: > 100 µM
P388 leukemia
  TGI: > 100 µM
U251 CNS
  TGI: > 100 µM
KM20L2 colon
  TGI: > 100 µM
COLO 205 colon
  TGI: > 100 µM
SNB-19 CNS
  TGI: > 100 µM
SF-268 CNS
  TGI: > 100 µM
HOP-92 NSCLC
  TGI: > 100 µM
A549 NSCLC
  TGI: > 100 µM
HT29 colon
  TGI: > 100 µM
OVCAR-8 ovarian
  TGI: > 100 µM
SN12C renal
  TGI: > 100 µM
NCI-H460 lung
  TGI: > 100 µM
SNB-75 CNS
  TGI: > 100 µM
SK-MEL-28 melanoma
  TGI: > 100 µM
MALME-3M melanoma
  TGI: > 100 µM
HOP-18 NSCLC
  TGI: > 100 µM
HCT-116 colon
  TGI: > 100 µM
OVCAR-3 ovarian
  TGI: > 100 µM
P388/ADR leukemia
  TGI: > 100 µM
RPMI-8226 leukemia
  TGI: > 100 µM
SK-MEL-2 melanoma
  TGI: > 100 µM
SK-OV-3 ovarian
  TGI: > 100 µM
CAKI-1 renal
  TGI: 97.3 µM
HCT-15 colon
  TGI: > 100 µM
OVCAR-4 ovarian
  TGI: > 100 µM
DLD-1 colon
  TGI: > 100 µM
M19-MEL melanoma
  TGI: > 100 µM
DMS 114 small cell lung
  TGI: > 100 µM
MOLT-4 leukemia
  TGI: > 100 µM
SK-MEL-5 melanoma
  TGI: > 100 µM
SNB-78 CNS
  TGI: > 100 µM
SN12K1 renal
  TGI: > 100 µM
DMS 273 small cell lung
  TGI: > 100 µM
KM12 colon
  TGI: > 100 µM
HOP-62 NSCLC
  TGI: 90.2 µM
NCI-H522 lung
  TGI: > 100 µM
RXF 393 renal
  TGI: > 100 µM
CCRF-CEM leukemia
  TGI: > 100 µM
UACC-62 melanoma
  TGI: > 100 µM
MCF7 breast
  TGI: > 100 µM
NCI-H23 lung
  TGI: > 100 µM
SF-295 CNS
  TGI: > 92.3 µM
NCI/ADR-RES ovarian
  TGI: > 100 µM

— PubChem BioAssay (NCI)
